Results as given in patent publication USRE39220E1, “Peptide-mediated gene transfer” (Genetic Applications, LLC, priority 1994, dated 2006).

Key:
Type in all cases: cell-based
[1] = system: Mouse fibroblast cell line (L cells); assay: Selection of stably transfected cell lines (G418-resistant colonies); conditions: G418 400 μg/ml selection, colonies counted two weeks after start of selection, similar with hygromycin
From the text: The DNA or other polynucleotide to be transfected, such as a plasmid containing a gene for a drug resistance marker or coding a protein needed for expression in the host cell, is complexed to a synthetic polypeptide molecule in different weight ratios in an isotonic buffer solution. For example the weight ratio of DNA:polypeptide can be between 1:1 and 10:1, although ratios outside of this range may be evaluated empirically for achieving the objects of the present invention. An isotonic buffer solution such as Hanks buffered salt solution or HEPES buffered saline may be used for complexing DNA to polypeptide.
(§1) While the complex is formed, the cells that are to be transfected either remain attached to a substratum, such as a tissue culture dish, or are pelleted (for cells that grow in suspension). The cells are treated with a hypertonic primer solution, such as a concentration of 0.3M-0.6M sucrose and 10% PEG in either Tris-HCl or HEPES (pH 7.2) buffered solution, for 3-5 mins at room temperature. The primer solution then is removed.
After the DNA-polypeptide complex is formed, it is made hypotonic. […]
Transfected cells are grown in regular growth medium for 48 hours, and then plated in selective medium containing 400 μg/ml of G418. […] The number of G418-resistant colonies was determined two weeks after the initiation of selection. […]

COS cells = assay: Transient expression of β-gal reporter gene (CH110) in COS cells; conditions: DNA-polypeptide 2.5-5.0 μg, stained 48 hrs after transfection
Method: as §1
After the DNA-polypeptide complex is formed, it is made hypotonic. The complex solution is hypotonic when it has a lesser osmotic pressure than a 0.15M or 0.9% solution of NaCl. For example, the complex in isotonic buffer can be made […] hypotonic or 0.075M simply by adding an amount of distilled water that is equal to the volume of the complex in isotonic buffer. The hypotonic complex solution then is added to the cells that have been treated with the primer solution. Cells remain in the hypotonic DNA-polypeptide solution for 3-4 minutes. Fresh medium then is added to the cells to rinse away excess DNA-polypeptide solution. Thereafter, the cells are grown normally.
Three different cell lines were used to test the efficiency of gene transfer of the new method. Mouse fibroblast cell line (L cells), mouse erythroleukemia cell line (C19TK), and COS cells. The COS cell line was used to establish conditions for transient gene expression. […]

[2] = system: mouse erythroleukemia cell line, C19TK; assay: Stable transfection of hematopoietic cells in suspension, hygromycin selection (pDR2); conditions: pDR2, hygromycin selection in microtiter plates, plated 48 hours after transfection
Method: A mouse erythroleukemia cell line, C19TK, also was used as a representative cell line for testing the transfection efficiency of the present invention with respect to hematopoietic cells. The expression vector, pDR2, which carries a hygromycin-resistance gene, was used for these studies, C19TK cells are exquisitely sensitive for the antibiotic hygromycin.
Briefly, about million cells are spun down and the cell pellet is treated with primer. The cells are then exposed to DNA-polypeptide complex under hypotonic condition. Forty-eight hours after transfection, a known number of cells are plated in microtiter plates with hygromycin. The number of wells with growing population of cells was enumerated to determine the transfection efficiency. The stable transfection efficiency was about 1-5%, as compared to most of the other non-virus-based methods that are very poor. Thus, the method described herein is very efficient for stable transfection efficiency both for hematopoietic and non hematopoietic cell lines. […] See Gilboa, et al. (1986), Miller, et al. (1986), Stuhlmann, et al. (1989), Miller, et al. (1989), and Zwiebel, et al. (1989), each cited above.

## PKKKRKVSGGGGGKKKKKKKKKKKK [Peptide-Mediated Gene Transfer, synthetic polypeptide (NLS peptide, neutral hinge, polylysine chain) linked electrostatically to DNA, forming a polypeptide-DNA complex]
[1]
  Stable Transfection Efficiency: 5-10%
[1]; listed as DNA-polypeptide complex
  Stable Transfection Efficiency: 5-10%
COS cells
  cells positive for the expression of the β-gal reporter gene: Forty to fifty
[2]
  Stable Transfection Efficiency: 1-5%
